Experimental data as given in ChEMBL document CHEMBL6071160, “Identification of a novel 10-hydroxyevodiamine prodrug as a potent topoisomerase inhibitor with improved aqueous solubility for treatment of hepatocellular carcinoma” (Eur J Med Chem, 2024).
In brackets after ≈: the same amount, converted by molar mass.

Key:
Huh-7 [1] = assay: Antiproliferative activity against human Huh-7 cells assessed as inhibition of cell proliferation incubated for 72 hrs by MTT assay; type: functional, cell-based; conditions: Huh-7, 72 h
[2] = Aqueous solubility of the compound […] measured after 72 hrs in shaking by HPLC analysis; type: physicochemical
Huh-7 [3] = assay: In vivo antitumor activity against human Huh-7 cells subcutaneously injected into BALB/C nude mouse assessed as tumor growth inhibition at 10 mg/kg, ip administered once daily measured after 14 days; type: functional; conditions: Huh-7, 336 h, time 14 day, read-out: TGI
Huh-7 [4] = assay: Induction of cell cycle arrest in human Huh-7 cells assessed as accumulation of cells at G1 phase 80 nM measured after 24 hrs by flow cytometric assay (reference value: 63.01%); type: functional
Huh-7 [5] = assay: Induction of cell cycle arrest in human Huh-7 cells assessed as accumulation of cells at G2 phase 80 nM measured after 24 hrs by flow cytometric assay (reference value: 13.66%); type: functional
Huh-7 [6] = assay: Induction of cell cycle arrest in human Huh-7 cells assessed as accumulation of cells at S phase 80 nM measured after 24 hrs by flow cytometric assay (reference value: 23.33%); type: functional
SK-HEP1 [7] = assay: Induction of cell cycle arrest in human SK-HEP1 cells assessed as accumulation of cells at G1 phase 80 nM measured after 24 hrs by flow cytometric assay (reference value: 47.55%); type: functional
SK-HEP1 [8] = assay: Induction of cell cycle arrest in human SK-HEP1 cells assessed as accumulation of cells at G2 phase 80 nM measured after 24 hrs by flow cytometric assay (reference value: 22.41%); type: functional
SK-HEP1 [9] = assay: Induction of cell cycle arrest in human SK-HEP1 cells assessed as accumulation of cells at S phase 80 nM measured after 24 hrs by flow cytometric assay (reference value: 30.04%); type: functional
Huh-7 [10] = assay: Induction of apoptosis in human Huh-7 cells assessed as viable cells at 80 nM measured after 24 hrs by Annexin-V-FITC/PI analysis (reference value: 97.46%); type: functional; conditions: read-out: Activity
Huh-7 [11] = assay: Induction of apoptosis in human Huh-7 cells assessed as early apoptotic cells at 80 nM measured after 24 hrs by Annexin-V-FITC/PI analysis (reference value: 1.04%); type: functional
Huh-7 [12] = assay: Induction of apoptosis in human Huh-7 cells assessed as late apoptotic cells at 80 nM measured after 24 hrs by Annexin-V-FITC/PI analysis (reference value: 1.23%); type: functional
Huh-7 [13] = assay: Induction of apoptosis in human Huh-7 cells assessed as necrotic cells at 80 nM measured after 24 hrs by Annexin-V-FITC/PI analysis (reference value: 0.27%); type: functional
SK-HEP1 [14] = assay: Induction of apoptosis in human SK-HEP1 cells assessed as viable cells at 80 nM measured after 24 hrs by Annexin-V-FITC/PI analysis (reference value: 97.20%); type: functional; conditions: read-out: Activity
SK-HEP1 [15] = assay: Induction of apoptosis in human SK-HEP1 cells assessed as early apoptotic cells at 80 nM measured after 24 hrs by Annexin-V-FITC/PI analysis (reference value: 1.45%); type: functional
SK-HEP1 [16] = assay: Induction of apoptosis in human SK-HEP1 cells assessed as late apoptotic cells at 80 nM measured after 24 hrs by Annexin-V-FITC/PI analysis (reference value: 0.64%); type: functional
SK-HEP1 [17] = assay: Induction of apoptosis in human SK-HEP1 cells assessed as necrotic cells at 80 nM measured after 24 hrs by Annexin-V-FITC/PI analysis (reference value: 0.70%); type: functional
Huh-7 [18] = assay: Induction of apoptosis in human Huh-7 cells assessed as loss of mitochondrial membrane potential by measuring JC-1 stained cells at 80 nM measured after 24 hrs by JC-1 staining based flow cytometry (reference value: 2.27%); type: functional
SK-HEP1 [19] = assay: Induction of apoptosis in human SK-HEP1 cells assessed as loss of mitochondrial membrane potential by measuring JC-1 stained cells at 80 nM measured after 24 hrs by JC-1 staining based flow cytometry (reference value: 0.49%); type: functional
Huh-7 [20] = assay: Induction of apoptosis in human Huh-7 cells assessed as ROS generation by measuring DCFH2-DA stained cells at 80 nM measured after 24 hrs […] (reference value: 0.45%); type: functional
SK-HEP1 [21] = assay: Induction of apoptosis in human SK-HEP1 cells assessed as ROS generation by measuring DCFH2-DA stained cells at 80 nM measured after 24 hrs […] (reference value: 0.14%); type: functional

IC50 (Huh-7 [1]): 40 nM
solubility thermodynamic at 72 h [2]: 2.4 µg/mL (≈ 5.03 µM)
Compound: CC(=O)Oc1ccc2[nH]c3c(c2c1)CCN1C(=O)c2cc(F)cc(F)c2N(c2cccc(F)c2)C31 (stereo unspecified)
inhibition in vivo at 10 mg/kg (Huh-7 [3]): 40%
Activity (Huh-7 [4]): 18.15%
Activity (Huh-7 [5]): 70.08%
Activity (Huh-7 [6]): 11.77%
Activity (SK-HEP1 [7]): 11.73%
Activity (SK-HEP1 [8]): 64.96%
Activity (SK-HEP1 [9]): 23.31%
viability at 0.08 µM (Huh-7 [10]): 82.5%
Activity (Huh-7 [11]): 6.38%
Activity (Huh-7 [12]): 10.32%
Activity (Huh-7 [13]): 0.83%
viability at 0.08 µM (SK-HEP1 [14]): 68.1%
Activity (SK-HEP1 [15]): 21.32%
Activity (SK-HEP1 [16]): 9.72%
Activity (SK-HEP1 [17]): 0.85%
Activity (Huh-7 [18]): 12.03%
Activity (SK-HEP1 [19]): 12.96%
Activity (Huh-7 [20]): 17.42%
Activity (SK-HEP1 [21]): 57.06%
